Measured values reported in ChEMBL document CHEMBL2384904, “Discovery of potent, selective, bioavailable phosphodiesterase 2 (PDE2) inhibitors active in an osteoarthritis pain model, part I: transformation of selective pyrazolodiazepinone phosphodiesterase 4 (PDE4) inhibitors into selective PDE2 inhibitors” (Bioorg Med Chem Lett, 2013).

Legend:
Homo sapiens [1] = organism: Homo sapiens; experiment: Selectivity ratio of IC50 for PDE4B (unknown origin) to IC50 for PDE2 (unknown origin)
in vitro = conditions: human, liver microsomes
[2] = molecular target: 3',5'-cyclic-AMP phosphodiesterase 4B (Homo sapiens, UniProt Q07343); experiment: Inhibition of PDE4B (unknown origin)
Chain of 3',5'-cyclic-AMP phosphodiesterase 4B (Q07343 whole entry): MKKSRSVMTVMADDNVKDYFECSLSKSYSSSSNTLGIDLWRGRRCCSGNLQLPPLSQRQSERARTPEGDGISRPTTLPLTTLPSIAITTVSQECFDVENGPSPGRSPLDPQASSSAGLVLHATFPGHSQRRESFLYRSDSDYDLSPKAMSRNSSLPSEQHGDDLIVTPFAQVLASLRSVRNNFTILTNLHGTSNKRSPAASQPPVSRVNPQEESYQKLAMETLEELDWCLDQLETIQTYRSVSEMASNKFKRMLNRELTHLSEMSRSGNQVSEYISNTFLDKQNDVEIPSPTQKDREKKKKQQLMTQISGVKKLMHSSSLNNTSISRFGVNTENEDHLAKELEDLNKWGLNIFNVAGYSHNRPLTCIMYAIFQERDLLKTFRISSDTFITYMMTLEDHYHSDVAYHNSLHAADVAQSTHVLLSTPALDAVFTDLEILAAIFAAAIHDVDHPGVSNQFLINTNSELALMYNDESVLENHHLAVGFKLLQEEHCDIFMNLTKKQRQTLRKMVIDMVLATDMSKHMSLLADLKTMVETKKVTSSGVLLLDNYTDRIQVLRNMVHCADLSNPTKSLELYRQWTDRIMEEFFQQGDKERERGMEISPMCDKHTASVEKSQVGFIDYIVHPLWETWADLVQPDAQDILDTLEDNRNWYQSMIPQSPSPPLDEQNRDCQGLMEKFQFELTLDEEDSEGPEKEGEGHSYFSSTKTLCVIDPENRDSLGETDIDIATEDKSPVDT

Phosphodiesterase 4 = Phosphodiesterase 4 (Homo sapiens, UniProt P27815+Q08499+Q07343+Q08493); experiment: Inhibition of PDE4 (unknown origin); assay type: protein assay
Homo sapiens [3] = organism: Homo sapiens; experiment: Selectivity ratio of IC50 for PDE4 (unknown origin) to IC50 for PDE2 (unknown origin)
[4] = molecular target: cGMP-dependent 3',5'-cyclic phosphodiesterase (Homo sapiens, UniProt O00408); experiment: Inhibition of PDE2 (unknown origin)
Chain of cGMP-dependent 3',5'-cyclic phosphodiesterase (O00408 whole entry): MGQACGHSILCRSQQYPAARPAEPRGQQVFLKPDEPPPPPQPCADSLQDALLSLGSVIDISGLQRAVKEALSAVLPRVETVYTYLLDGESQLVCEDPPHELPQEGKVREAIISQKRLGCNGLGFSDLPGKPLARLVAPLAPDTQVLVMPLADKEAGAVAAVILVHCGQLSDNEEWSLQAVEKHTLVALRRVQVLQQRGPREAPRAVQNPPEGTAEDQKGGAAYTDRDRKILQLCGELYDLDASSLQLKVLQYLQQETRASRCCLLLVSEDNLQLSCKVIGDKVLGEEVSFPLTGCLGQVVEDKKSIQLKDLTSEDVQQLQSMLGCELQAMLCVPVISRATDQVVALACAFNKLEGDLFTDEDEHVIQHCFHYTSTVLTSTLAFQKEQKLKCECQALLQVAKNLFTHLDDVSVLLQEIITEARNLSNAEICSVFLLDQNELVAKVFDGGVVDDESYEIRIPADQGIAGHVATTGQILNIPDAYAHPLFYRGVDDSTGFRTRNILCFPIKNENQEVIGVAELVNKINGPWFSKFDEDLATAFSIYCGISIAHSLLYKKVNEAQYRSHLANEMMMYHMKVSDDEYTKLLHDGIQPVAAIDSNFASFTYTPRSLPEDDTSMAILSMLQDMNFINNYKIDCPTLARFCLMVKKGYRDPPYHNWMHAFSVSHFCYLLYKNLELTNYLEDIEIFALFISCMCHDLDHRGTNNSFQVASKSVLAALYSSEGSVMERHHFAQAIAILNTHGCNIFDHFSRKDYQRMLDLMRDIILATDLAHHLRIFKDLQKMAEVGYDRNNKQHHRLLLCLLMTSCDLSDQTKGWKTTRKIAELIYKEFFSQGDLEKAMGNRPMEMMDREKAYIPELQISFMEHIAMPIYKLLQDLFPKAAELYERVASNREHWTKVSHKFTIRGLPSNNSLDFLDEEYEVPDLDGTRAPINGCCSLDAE

[5] = Bioavailability in rat; assay type: ADME, organism-based; conditions: in vivo
[6] = molecular target: cAMP and cAMP-inhibited cGMP 3',5'-cyclic phosphodiesterase 10A (Homo sapiens) (UniProt Q9Y233); experiment: Inhibition of PDE10 (unknown origin)
Chain of cAMP and cAMP-inhibited cGMP 3',5'-cyclic phosphodiesterase 10A (Homo sapiens) (Q9Y233 whole entry): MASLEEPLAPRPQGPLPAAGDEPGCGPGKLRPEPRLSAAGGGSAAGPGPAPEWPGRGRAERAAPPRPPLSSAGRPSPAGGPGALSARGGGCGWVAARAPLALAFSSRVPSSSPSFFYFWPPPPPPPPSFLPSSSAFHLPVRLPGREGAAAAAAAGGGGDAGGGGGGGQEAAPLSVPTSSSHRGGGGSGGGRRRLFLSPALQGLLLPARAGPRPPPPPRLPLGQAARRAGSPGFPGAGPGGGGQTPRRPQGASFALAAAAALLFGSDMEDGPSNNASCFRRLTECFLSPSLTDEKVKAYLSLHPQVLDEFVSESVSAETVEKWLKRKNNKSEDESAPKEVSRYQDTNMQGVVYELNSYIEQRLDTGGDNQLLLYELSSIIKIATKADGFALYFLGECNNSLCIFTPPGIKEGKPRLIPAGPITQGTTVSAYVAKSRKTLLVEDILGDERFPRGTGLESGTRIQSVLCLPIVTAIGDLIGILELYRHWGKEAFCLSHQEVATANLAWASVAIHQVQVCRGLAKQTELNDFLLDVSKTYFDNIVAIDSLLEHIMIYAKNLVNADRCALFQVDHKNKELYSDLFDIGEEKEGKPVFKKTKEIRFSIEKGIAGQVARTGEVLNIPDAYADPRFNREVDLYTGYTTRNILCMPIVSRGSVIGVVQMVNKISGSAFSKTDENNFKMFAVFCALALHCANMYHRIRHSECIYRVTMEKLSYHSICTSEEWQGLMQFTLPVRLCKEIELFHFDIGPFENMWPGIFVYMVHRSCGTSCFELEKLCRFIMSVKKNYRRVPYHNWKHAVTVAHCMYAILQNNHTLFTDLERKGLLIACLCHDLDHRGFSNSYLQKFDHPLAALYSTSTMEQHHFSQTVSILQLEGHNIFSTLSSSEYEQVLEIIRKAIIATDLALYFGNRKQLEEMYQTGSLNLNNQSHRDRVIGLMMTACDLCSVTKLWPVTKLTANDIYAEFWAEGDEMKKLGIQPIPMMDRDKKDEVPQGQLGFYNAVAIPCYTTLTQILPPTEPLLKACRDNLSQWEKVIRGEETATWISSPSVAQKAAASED

[7] = molecular target: Phosphodiesterase 6 (Homo sapiens) (UniProt Q13956+P18545+P35913+O43924+P16499+P51160); experiment: Inhibition of PDE6 (unknown origin); assay type: protein assay
[8] = molecular target: Phosphodiesterase 7 (Homo sapiens) (UniProt Q13946+Q9NP56); experiment: Inhibition of PDE7 (unknown origin); assay type: protein assay
Chain of Phosphodiesterase 7 (Homo sapiens) (Q13946 whole entry, looked up): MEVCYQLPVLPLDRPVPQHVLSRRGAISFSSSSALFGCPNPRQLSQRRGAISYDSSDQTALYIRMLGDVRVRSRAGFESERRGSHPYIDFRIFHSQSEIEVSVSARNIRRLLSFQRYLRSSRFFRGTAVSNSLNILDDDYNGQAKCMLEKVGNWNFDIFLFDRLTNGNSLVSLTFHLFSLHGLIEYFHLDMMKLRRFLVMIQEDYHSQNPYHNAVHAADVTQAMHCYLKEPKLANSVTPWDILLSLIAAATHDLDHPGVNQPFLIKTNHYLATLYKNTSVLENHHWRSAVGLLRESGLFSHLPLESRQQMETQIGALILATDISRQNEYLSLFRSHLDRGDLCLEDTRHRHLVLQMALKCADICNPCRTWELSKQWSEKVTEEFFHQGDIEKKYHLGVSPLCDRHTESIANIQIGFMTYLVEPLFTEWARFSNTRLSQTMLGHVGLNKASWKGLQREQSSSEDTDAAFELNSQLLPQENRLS
Chain of Phosphodiesterase 7 (Homo sapiens) (Q9NP56 whole entry, looked up): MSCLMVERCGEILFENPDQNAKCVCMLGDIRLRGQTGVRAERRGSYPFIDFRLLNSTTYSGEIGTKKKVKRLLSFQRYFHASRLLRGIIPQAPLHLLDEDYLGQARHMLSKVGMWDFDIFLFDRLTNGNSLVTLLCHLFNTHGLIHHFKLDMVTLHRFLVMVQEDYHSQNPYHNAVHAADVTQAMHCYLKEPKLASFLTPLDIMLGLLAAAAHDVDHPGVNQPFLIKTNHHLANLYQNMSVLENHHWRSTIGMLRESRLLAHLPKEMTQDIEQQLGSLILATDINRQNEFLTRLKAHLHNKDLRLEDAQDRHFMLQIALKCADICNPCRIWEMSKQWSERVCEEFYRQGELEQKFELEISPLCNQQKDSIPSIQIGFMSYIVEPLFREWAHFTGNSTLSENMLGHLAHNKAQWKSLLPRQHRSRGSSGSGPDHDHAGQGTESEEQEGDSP

[9] = molecular target: Phosphodiesterase 1 (Homo sapiens) (UniProt P54750+Q01064+Q14123); experiment: Inhibition of PDE1 (unknown origin); assay type: protein assay
[10] = molecular target: cGMP-specific 3',5'-cyclic phosphodiesterase (Homo sapiens) (UniProt O76074); experiment: Inhibition of PDE5 (unknown origin)
[11] = molecular target: High affinity cGMP-specific 3',5'-cyclic phosphodiesterase 9A (Homo sapiens) (UniProt O76083); experiment: Inhibition of PDE9 (unknown origin)
[12] = molecular target: Dual 3',5'-cyclic-AMP and -GMP phosphodiesterase 11A (Homo sapiens) (UniProt Q9HCR9); experiment: Inhibition of PDE11 (unknown origin)
Chain of Dual 3',5'-cyclic-AMP and -GMP phosphodiesterase 11A (Homo sapiens) (Q9HCR9 whole entry, looked up): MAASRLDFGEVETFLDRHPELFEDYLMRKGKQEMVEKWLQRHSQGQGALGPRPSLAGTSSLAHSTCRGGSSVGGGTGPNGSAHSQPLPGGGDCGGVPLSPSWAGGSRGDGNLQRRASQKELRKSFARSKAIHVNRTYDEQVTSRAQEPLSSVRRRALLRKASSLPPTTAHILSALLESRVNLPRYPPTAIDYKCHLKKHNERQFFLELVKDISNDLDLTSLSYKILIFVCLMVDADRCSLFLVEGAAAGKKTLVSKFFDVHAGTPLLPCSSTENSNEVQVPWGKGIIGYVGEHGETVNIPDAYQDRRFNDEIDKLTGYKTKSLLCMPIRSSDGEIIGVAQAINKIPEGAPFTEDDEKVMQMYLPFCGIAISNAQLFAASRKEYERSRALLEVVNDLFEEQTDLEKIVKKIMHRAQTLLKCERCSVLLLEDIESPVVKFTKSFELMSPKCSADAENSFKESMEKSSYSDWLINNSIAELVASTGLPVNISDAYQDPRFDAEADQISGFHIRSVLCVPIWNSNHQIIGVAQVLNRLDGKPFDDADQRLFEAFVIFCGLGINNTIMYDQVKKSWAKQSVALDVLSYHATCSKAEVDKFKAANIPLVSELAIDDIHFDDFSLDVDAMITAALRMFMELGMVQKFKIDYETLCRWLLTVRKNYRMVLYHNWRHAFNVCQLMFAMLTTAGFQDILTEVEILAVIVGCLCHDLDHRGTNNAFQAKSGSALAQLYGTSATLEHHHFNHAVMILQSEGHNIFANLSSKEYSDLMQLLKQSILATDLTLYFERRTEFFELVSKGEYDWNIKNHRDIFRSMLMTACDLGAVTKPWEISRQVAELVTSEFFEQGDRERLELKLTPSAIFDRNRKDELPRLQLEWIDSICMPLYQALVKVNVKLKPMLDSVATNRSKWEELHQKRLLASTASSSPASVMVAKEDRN

[13] = Half life in iv dosed rat; assay type: ADME, organism-based; conditions: in vivo
[14] = molecular target: Phosphodiesterase 3 (Homo sapiens) (UniProt Q14432+Q13370); experiment: Inhibition of PDE3 (unknown origin); assay type: protein assay
[15] = molecular target: Phosphodiesterase 8 (Homo sapiens) (UniProt O95263+O60658); experiment: Inhibition of PDE8 (unknown origin); assay type: protein assay
[16] = Half life in po dosed rat; assay type: ADME, organism-based; conditions: in vivo

| Structure (SMILES) | Ratio IC50 (Homo sapiens [1]) | half-life (in vitro) | IC50 [2] | IC50 (Phosphodiesterase 4) | Ratio IC50 (Homo sapiens [3]) | IC50 [4] | further results |
| --- | --- | --- | --- | --- | --- | --- | --- |
| CCC(CC)c1nn(CCO)c2c1N=C(c1ccc(-n3ccnc3C)cc1)CNC2=O | 11 | 5 min | 583 nM | 538 nM | 11 | 54 nM | – |
| COc1ccc(Cc2nn3c([C@@H](CCc4ccccc4)[C@@H](C)O)nc(C)c3c(=O)[nH]2)cc1OO | – | – | – | – | – | 4.7 nM | – |
| CCC(CC)c1nn(CCCO)c2c1N=C(c1ccccc1)CNC2=O | – | 36 min | – | – | – | – | – |
| CC(C)(C)c1nn(CCO)c2c1N=C(c1ccc(F)cc1)CNC2=O | – | – | – | 31 nM | 0.12 | 259 nM | – |
| CCC(CC)c1nn(CCO)c2c1N=C(c1ccccc1)CNC2=O | – | 20 min | – | 76 nM | 0.7 | 102 nM | – |
| CCC(CC)c1nn(CC)c2c1N=C(c1ccc(C(=O)O)cc1)CNC2=O | – | – | – | 1.2 nM | 0.0015 | 840 nM | bioavailability [5]: 80%; INH [6]: > 5 µM; INH [7]: > 5 µM; INH [8]: > 5 µM; INH [9]: > 5 µM; INH [10]: > 5 µM; INH [11]: > 5 µM; INH [12]: > 5 µM; half-life [13]: 114 min; INH [14]: > 5 µM; INH [15]: > 5 µM; half-life [16]: 300 min |
| CCC(CC)c1nn(CCO)c2c1N=C(c1ccc(OC)c(OC)c1)CNC2=O | – | 23 min | – | 48 nM | 2 | 23 nM | – |

Second part, led by results:

| Ratio IC50 (Homo sapiens [1]) | half-life (in vitro) | IC50 [2] | IC50 (Phosphodiesterase 4) | Ratio IC50 (Homo sapiens [3]) | IC50 [4] | Structure (SMILES) | further results |
| --- | --- | --- | --- | --- | --- | --- | --- |
| – | 44 min | – | 365 nM | 4 | 93 nM | CCC(CC)c1nn(CCCO)c2c1N=C(c1ccc(OC)c(OC)c1)CNC2=O | – |
| 8 | 7 min | 378 nM | – | – | 45 nM | CCC(C)(C)c1nn(CCO)c2c1N=C(c1ccc(-n3ccnc3C)cc1)CNC2=O | – |
| – | – | – | – | – | 800 nM | CCCCCC[C@@H]([C@@H](C)O)n1cnc2c(N)ncnc21 (relative stereo) [EHNA] | – |
| – | 6 min | – | 10800 nM | 33 | 328 nM | CCC(CC)c1nn(CCCO)c2c1N=C(c1ccc(-n3ccnc3C)cc1)CNC2=O | – |
| 19 | 9 min | 1950 nM | – | – | 105 nM | CCC(C)(C)c1nn(CCO)c2c1N=C(c1ccc(-n3cc(C)nc3C)cc1)CNC2=O | – |
| 3 | 12 min | 330 nM | – | – | 97 nM | CC(C)c1nccn1-c1ccc(C2=Nc3c(C(C)(C)C)nn(CCO)c3C(=O)NC2)cc1 | – |
